From PubChem BioAssay AID2060358 (Molecular Pharmacology Branch, DTP, NCI, 2025)
The source made the active and inactive calls. How the source made its calls: active means viability on the fitted dose curve at most 10% of control; inactive means the rest.

System: 254851-301-R-J1-PDC spheroids, viability % test/control
Experiment: Anticancer human tumor 254851-301-R-J1-PDC patient-derived colon carcinoma cell line growth inhibition [TAK]
Settings: spheroids with HUVEC and MSC; for IC50: curve of first compound; for viability, T/C: stronger effect = lower value
Source text: Combinatorial screen of targeted agents with TAK-243 and ipatasertib in multi-cell type tumor spheroids
A high-throughput screen of multi-cell type tumor spheroids was designed to identify active combinations of targeted small molecules and TAK-243 or ipatasertib. Complex spheroids include a stromal component modeled by human endothelial cells (HUVEC) and fibroblasts modeled by human mesenchymal stem cells (MSCs). The concentration ranges selected for each drug and investigational agent were based upon clinically achievable concentrations if the clinical Cmax of the agent was known.
Compounds. The drugs and investigational agents: TAK-243 (785004), ipatasertib (767898), everolimus (733504), selumetinib (741078), bortezomib (756655), trametinib (758246), ixazomib (758254), vemurafenib (761431), dabrafenib (764134), sapanisertib (764658), alpelisib (765974), and copanlisib (816437), were obtained from the National Cancer Institute (NCI) Developmental Therapeutics Program Chemical Repository. The FDA-approved anticancer drug set is available from the NCI Developmental Therapeutics Program. […] The stock solutions were prepared in dimethyl sulfoxide (DMSO, Sigma-Aldrich, St. Louis, MO, cat. D2650) at 800-fold the tested concentration and stored at -70 degrees C prior to their use. All drugs and investigational agents were tested over a range starting from a high concentration at or near the clinical Cmax and decreasing in half-log increments. If the clinical Cmax for an agent had not been determined, the highest concentration tested was 10 microM.
NCI60 Cell Culture. NCI60 cell lines were obtained from the NCI Developmental Therapeutics Program Tumor Repository. For each lot of cells, the Repository performed Applied Biosystems AmpFLSTR Identifiler testing with PCR amplification to confirm consistency with the published Identifier STR profile for each cell line. Cells were kept in continuous culture for no more than 20 passages. The optimal seeding densities for each of the cell lines at each time point assessed were determined prior to performing the concentration response studies. Briefly, the NCI60 human tumor lines were grown as monolayers in RPMI 1640 medium supplemented with 10% FBS and 2 mmol/L L-glutamine.
An additional 2 lines were from the NCI60 cell line panel including melanomas, MALME-3M and SK-MEL-2. Pooled donor human umbilical vein endothelial cells (HUVEC, Lonza, cat. CC-2519) and human mesenchymal stem cells (hMSC, Lonza, cat. PT-2501) were purchased from Lonza (Walkersville, MD).
PDMR cell lines were grown in complete medium (DC medium): Dulbecco's modified Eagle's medium (DMEM)/F12 supplemented with 5% fetal bovine serum (FBS), 2 mM L-glutamine, 100 U/mL penicillin and 100 µg/ml streptomycin, 0.4 µg/ml hydrocortisone, 10 ng/ml epidermal growth factor (EGF) recombinant human protein, 24 µg/mL adenine, and 0.1 mg/mL primocin. During culture from frozen stock vials, PDMR cells were cultured in the same medium containing 10 µM Y-27632 (see Table 3). The PDCs were cultured in complete DMEM/F12 media without 10 microM Y-27632 dihydrochloride for at least two passages prior to the screen. The pooled donor HUVEC and hMSC were cultured in endothelial cell growth medium 2 (PromoCell, Heidelberg, Germany, cat. C-22011) and mesenchymal stem cell growth medium 2 (PromoCell, cat. C-28009), respectively. For all experiments, HUVEC and hMSC were used at passages </=5.
For the pre-screen, cell seeding densities were determined from a titration spanning the range from 5,000 to 313 cells per well. The mct-spheroids including 60% malignant cells, 25% HUVEC and 15% MSC dispensed as a mixture into U-bottom Ultra-Low Attachment 384-well plates (Corning, NY)
High-throughput Drug Combination Screening.
Prior to their inoculation into 384-well plates, malignant cells, HUVEC, and hMSC were removed from T flasks using TrypLE express (Thermo Fisher Scientific, cat. 12605036) and harvested by centrifugation for 5 min at 233 x g. […]
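Wherever IC50 is given: spheroids exposed to drugs for seven days before viability readout.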
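Wherever viability, T/C is given: spheroids exposed to drugs for seven days before viability readout.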

Which results are given for `CC(=O)Nc1cccc(-n2c(=O)n(C3CC3)c(=O)c3c(Nc4ccc(I)cc4F)n(C)c(=O)c(C)c32)c1` + CC(C)NCC(C(=O)N1CCN(c2ncnc3c2C(C)CC3O)CC1)c1ccc(Cl)cc1?
IC50 (second compound 0.3 µM): 0.0176 µM; IC50 (second compound 0.949 µM): 0.0176 µM; IC50 (second compound 3 µM): 0.0186 µM; IC50 (second compound 9.49 µM): 0.0173 µM; IC50 (second compound 30 µM): 0.0125 µM; viability, T/C (second compound 0.3 µM, first compound 94.9 pM): 115%; viability, T/C (second compound 0.3 µM, first compound 0.0003 µM): 109%; viability, T/C (second compound 0.3 µM, first compound 0.000949 µM): 108%; viability, T/C (second compound 0.3 µM, first compound 0.003 µM): 116%; viability, T/C (second compound 0.3 µM, first compound 0.00949 µM): 95.7%; viability, T/C (second compound 0.3 µM, first compound 0.03 µM): 11%; viability, T/C (second compound 0.949 µM, first compound 94.9 pM): 111%; viability, T/C (second compound 0.949 µM, first compound 0.0003 µM): 110%; viability, T/C (second compound 0.949 µM, first compound 0.000949 µM): 111%; viability, T/C (second compound 0.949 µM, first compound 0.003 µM): 102%; viability, T/C (second compound 0.949 µM, first compound 0.00949 µM): 88.5%; viability, T/C (second compound 0.949 µM, first compound 0.03 µM): 17.4%; viability, T/C (second compound 3 µM, first compound 94.9 pM): 106%; viability, T/C (second compound 3 µM, first compound 0.0003 µM): 107%; viability, T/C (second compound 3 µM, first compound 0.000949 µM): 110%; viability, T/C (second compound 3 µM, first compound 0.003 µM): 116%; outcome (second compound 3 µM, first compound 0.00949 µM): inactive; viability, T/C (second compound 3 µM, first compound 0.03 µM): 9.28%; viability, T/C (second compound 9.49 µM, first compound 94.9 pM): 94.7%; viability, T/C (second compound 9.49 µM, first compound 0.0003 µM): 114%; viability, T/C (second compound 9.49 µM, first compound 0.000949 µM): 106%; viability, T/C (second compound 9.49 µM, first compound 0.003 µM): 108%; viability, T/C (second compound 9.49 µM, first compound 0.00949 µM): 97.7%; viability, T/C (second compound 9.49 µM, first compound 0.03 µM): 6.45%; viability, T/C (second compound 30 µM, first compound 94.9 pM): 81.1%; viability, T/C (second compound 30 µM, first compound 0.0003 µM): 96.6%; viability, T/C (second compound 30 µM, first compound 0.000949 µM): 97.3%; viability, T/C (second compound 30 µM, first compound 0.003 µM): 81.4%; viability, T/C (second compound 30 µM, first compound 0.00949 µM): 65.3%; viability, T/C (second compound 30 µM, first compound 0.03 µM): 2.95%

With `CC(C)CC(NC(=O)C(Cc1ccccc1)NC(=O)c1cnccn1)B(O)O` (stereo not given) + CC(C)NCC(C(=O)N1CCN(c2ncnc3c2C(C)CC3O)CC1)c1ccc(Cl)cc1 as the compound, how does the IC50 (second compound 0.3 µM) read?
The IC50 was over 0.01 µM.

What about the IC50 (second compound 0.949 µM) of the same compound?
The IC50 was over 0.01 µM.

And the IC50 (second compound 3 µM)?
Its IC50 is over 0.01 µM.

What about the IC50 (second compound 9.49 µM) of the same compound?
The IC50 was over 0.01 µM.

What about the IC50 (second compound 30 µM) of the same compound?
The IC50 was over 0.01 µM.

What about the viability, T/C (second compound 0.3 µM, first compound 31.6 pM) of the same compound?
The viability, T/C was 118%.

And the viability, T/C (second compound 0.3 µM, first compound 0.0001 µM)?
Its viability, T/C is 124%.

What about the viability, T/C (second compound 0.3 µM, first compound 0.000316 µM) of the same compound?
The viability, T/C was 109%.

What about the viability, T/C (second compound 0.3 µM, first compound 0.001 µM) of the same compound?
The viability, T/C was 112%.

And the viability, T/C (second compound 0.3 µM, first compound 0.00316 µM)?
The viability, T/C was 103%.

What about the viability, T/C (second compound 0.3 µM, first compound 0.01 µM) of the same compound?
The viability, T/C was 79.9%.

And the viability, T/C (second compound 0.949 µM, first compound 31.6 pM)?
The viability, T/C was 112%.

What about the viability, T/C (second compound 0.949 µM, first compound 0.0001 µM) of the same compound?
Its viability, T/C is 114%.

And the viability, T/C (second compound 0.949 µM, first compound 0.000316 µM)?
Its viability, T/C is 101%.

What about the viability, T/C (second compound 0.949 µM, first compound 0.001 µM) of the same compound?
The viability, T/C was 107%.

What about the viability, T/C (second compound 0.949 µM, first compound 0.00316 µM) of the same compound?
The viability, T/C was 103%.

What about the viability, T/C (second compound 0.949 µM, first compound 0.01 µM) of the same compound?
Its viability, T/C is 87.9%.

And the viability, T/C (second compound 3 µM, first compound 31.6 pM)?
The viability, T/C was 108%.

And the viability, T/C (second compound 3 µM, first compound 0.0001 µM)?
Its viability, T/C is 114%.

And the viability, T/C (second compound 3 µM, first compound 0.000316 µM)?
Its viability, T/C is 110%.

What about the viability, T/C (second compound 3 µM, first compound 0.001 µM) of the same compound?
The viability, T/C was 109%.

What about the viability, T/C (second compound 3 µM, first compound 0.00316 µM) of the same compound?
The viability, T/C was 111%.

And the viability, T/C (second compound 3 µM, first compound 0.01 µM)?
Its viability, T/C is 86.6%.

What about the viability, T/C (second compound 9.49 µM, first compound 31.6 pM) of the same compound?
The viability, T/C was 106%.

What about the viability, T/C (second compound 9.49 µM, first compound 0.0001 µM) of the same compound?
Its viability, T/C is 110%.

What about the viability, T/C (second compound 9.49 µM, first compound 0.000316 µM) of the same compound?
Its viability, T/C is 112%.

What about the viability, T/C (second compound 9.49 µM, first compound 0.001 µM) of the same compound?
The viability, T/C was 104%.

What about the viability, T/C (second compound 9.49 µM, first compound 0.00316 µM) of the same compound?
Its viability, T/C is 99%.

What about the viability, T/C (second compound 9.49 µM, first compound 0.01 µM) of the same compound?
Its viability, T/C is 81.4%.

What about the viability, T/C (second compound 30 µM, first compound 31.6 pM) of the same compound?
Its viability, T/C is 90.3%.

And the viability, T/C (second compound 30 µM, first compound 0.0001 µM)?
Its viability, T/C is 98.9%.

And the viability, T/C (second compound 30 µM, first compound 0.000316 µM)?
Its viability, T/C is 94.4%.

What about the viability, T/C (second compound 30 µM, first compound 0.001 µM) of the same compound?
Its viability, T/C is 89%.

What about the viability, T/C (second compound 30 µM, first compound 0.00316 µM) of the same compound?
The viability, T/C was 85.7%.

And the viability, T/C (second compound 30 µM, first compound 0.01 µM)?
The viability, T/C was 71%.
